Test [1] has as its target T1, Adenosylmethionine-8-amino-7-oxononanoate aminotransferase (Mycobacterium tuberculosis, UniProt P9WQ81).
T1 sequence (P9WQ81 whole entry): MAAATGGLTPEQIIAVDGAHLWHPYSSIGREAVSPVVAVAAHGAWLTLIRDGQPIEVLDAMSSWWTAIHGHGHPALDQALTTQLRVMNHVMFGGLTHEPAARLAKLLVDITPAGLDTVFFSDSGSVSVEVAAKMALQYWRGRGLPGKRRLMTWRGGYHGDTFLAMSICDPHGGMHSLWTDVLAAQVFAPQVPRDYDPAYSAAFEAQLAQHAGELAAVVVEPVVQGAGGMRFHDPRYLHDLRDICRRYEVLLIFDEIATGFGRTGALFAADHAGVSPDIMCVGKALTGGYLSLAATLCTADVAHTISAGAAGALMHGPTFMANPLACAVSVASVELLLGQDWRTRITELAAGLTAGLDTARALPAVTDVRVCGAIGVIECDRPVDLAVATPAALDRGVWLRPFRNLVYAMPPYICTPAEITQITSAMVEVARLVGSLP
The test is described as follows: Mycobacterium tuberculosis BioA enzyme inhibitor Measured in Biochemical System Using Plate Reader - 2163-02_Inhibitor_Dose_CherryPick_Activity. Type of test: functional, Mycobacterium tuberculosis UT205.

The nature of test [2]: cytotoxicity in OVCAR8 ovarian cancer cells, dose response, PAX8 project, cell-based, plate reader, dry powder samples (AID 743197). Type of test: functional. Conditions: OVCAR-8.
The target of a further test is Paired box protein Pax-8 (Homo sapiens, UniProt Q06710). The test is described as follows: inhibitors of PAX8-driven TPO luciferase reporter, dose response, RMG-I cells, cherry-pick (AID 687027).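 Note: luciferase reporter driven by Pax8 target thyroperoxidase promoter measured by SteadyGlo luminescence.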 Type of test: functional, cell-based. On the technique in general: In a reporter assay the amount or activity of a reporter protein is the signal.
Test [3] is described as follows: NIH:OVCAR-3 ovarian cancer cell cytotoxicity, dose response, PAX8 inhibitor project, plate reader, dry powder samples (AID 743044). The test is classed as functional, cell-based.
A short description of test [4]: IGROV1 ovarian cancer cell cytotoxicity, dose response, PAX8 inhibitor project, plate reader, dry powder samples (AID 743043). The test is classed as functional, cell-based. Conditions: IGROV-1.
Test [5] can be described thus: HeLa 2N DNA content increase, dose response, cell-based, IC50 (AID 1117349). The test is classed as functional.
Test [6] is described as follows: HeLa 4N DNA content increase, dose response, cell-based, IC50 (AID 1117351). Type of test: functional.
The nature of test [7]: T. cruzi growth inhibition in host cells, dose response, cell-based, plate reader, dry powder, set 2 (AID 652275). The test is classed as functional.
Test [8] is described as follows: HepG2 cell cytotoxicity, dose response, cytotoxicity control, plate reader, dry powder samples (AID 1159569).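 Note: inhibitor potency with signal falling toward the positive control level.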 The test is classed as functional, cell-based.
Test [9] is described as follows: P. falciparum 3D7-ScDHODH growth inhibitors, dose response, SYBR Green, dry powder samples (AID 1159570).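 Note: parasite growth measured after 72 hours of compound exposure.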 The test is classed as functional, cell-based.
Test [10] can be described thus: P. falciparum Dd2 growth inhibitors, dose response, SYBR Green, cherry-picked samples (AID 1159567). Type of test: functional, cell-based.
Test [11] in a line: HepG2 cell cytotoxicity, dose response, cytotoxicity control, cherry-picked samples (AID 1159577). The test is classed as functional, cell-based.
A short description of test [12]: P. falciparum ATP4 D1247Y mutant growth inhibitors, dose response, NITD609-resistant line, SYBR Green, dry powder (AID 1159571).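 Note: parasites synchronized at ring stage by sorbitol before testing.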 The test is classed as functional, cell-based.
Test [13] in a line: P. falciparum Dd2 growth inhibitors, dose response, SYBR Green, dry powder samples (AID 1159566).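 Note: potency for growth inhibition with lower SYBR green DNA signal.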 The test is classed as functional, cell-based.
The nature of test [14]: cytotoxicity toward HT-29 cells – cell-based, CellTiter-Glo luminescence, IC50, dose response (AID 1117330). The test is classed as functional. For orientation: In ATP-based viability assays light output follows the ATP content of the culture.
A short description of test [15]: SNU-C1 cell viability reduction, dose response, CellTiter-Glo luminescence (AID 1117323). The test is classed as functional, cell-based.
The nature of test [16]: cytotoxicity toward HCT116 cells – cell-based, CellTiter-Glo luminescence, IC50, dose response (AID 1117332). The test is classed as functional. The following applies: HCT-116.
A short description of test [17]: CellTiter-Glo luminescent dose response of DLD-1 viability loss (AID 1117352). Type of test: functional.
The nature of test [18]: HCT116 cell viability decrease, GSK3B pretreatment – CellTiter-Glo, IC50, dose response (AID 1117339). Type of test: functional. The following applies: HCT-116.
Test [19] in a line: RKO cell viability reduction, dose response, CellTiter-Glo luminescence (AID 1117322). Type of test: functional.
Test [20] can be described thus: Concentration-dependent survival of SW480 colon cancer line, luminescence detection with CellTiter-Glo, half-maximal inhibitory concentration (AID 1117338). The test is classed as functional.
Test [21] in a line: cytotoxicity toward Colo320 cells – cell-based, CellTiter-Glo luminescence, IC50, dose response (AID 1117334). The test is classed as functional. Conditions: COLO 320.
The subject of another test is SN12K1. The test is described as follows: cells. Type of test: functional. The following applies: Homo sapiens.
In another test the test system is P388. The test is described as follows: cells. The test is classed as functional. Conditions: Mus musculus.
For the next test, the system named is P388/ADR. Description: cells. Type of test: functional. The following applies: Mus musculus.

Calls of active or inactive are those of the source.

What is called AC50 is the midpoint of the concentration-response curve, whichever way the signal moves. The IC50 is the midpoint of a concentration-inhibition curve. The GI50 is the concentration that inhibits growth by half.

Chain of Paired box protein Pax-8 (Q06710 whole entry): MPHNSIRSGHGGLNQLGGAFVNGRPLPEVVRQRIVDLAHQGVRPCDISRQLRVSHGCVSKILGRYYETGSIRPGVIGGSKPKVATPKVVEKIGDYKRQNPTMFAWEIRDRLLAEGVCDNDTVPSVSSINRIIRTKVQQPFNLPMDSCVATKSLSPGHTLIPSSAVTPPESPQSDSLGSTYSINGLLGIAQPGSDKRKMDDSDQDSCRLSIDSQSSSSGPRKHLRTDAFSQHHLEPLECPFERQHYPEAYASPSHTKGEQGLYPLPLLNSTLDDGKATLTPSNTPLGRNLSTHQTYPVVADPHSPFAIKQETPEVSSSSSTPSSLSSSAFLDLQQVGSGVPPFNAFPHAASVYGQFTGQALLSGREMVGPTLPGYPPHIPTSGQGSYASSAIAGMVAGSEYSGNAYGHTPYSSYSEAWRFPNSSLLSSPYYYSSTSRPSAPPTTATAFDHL

Consider `COc1ccc(-c2ccc3c(c2)[C@H]2[C@H](CCN2C(=O)Cc2cccnc2)[C@H](CO)N3C)cc1`, for which the figures for the concentration at half-maximal activity (AC50) in test [1] and in [2] were 1.57 µM (active) and > 70 µM (inactive), respectively.
For the molecule `C[C@@H]1CCCCO[C@H](CN(C)Cc2ccc(C(F)(F)F)cc2)[C@@H](C)CN([C@@H](C)CO)C(=O)c2cc(NC(=O)Cc3ccccc3)ccc2O1`, the AC50 is 9.25 µM (active) on Paired box protein Pax-8, 35.2 µM (active) in test [3] and 64.6 µM (active) in [4].
As to `CCCCCCCCCCOCC(O)CN` (stereo not drawn), the IC50 in test [5] and in test [6] was > 10 µM (inactive) throughout.
For `C[C@@H]1CCCCO[C@H](CN(C)C(=O)Nc2ccc(C(F)(F)F)cc2)[C@@H](C)CN([C@@H](C)CO)C(=O)c2cc(NS(=O)(=O)c3ccc(F)cc3)ccc2O1`, the half-maximal activity concentration (AC50) was 4.88 µM (active) at Paired box protein Pax-8 and > 70 µM (inactive) in test [2].
On to `C[C@H]1CN([C@@H](C)CO)C(=O)c2cccc(NC(=O)c3ccncc3)c2O[C@@H]1CN(C)Cc1cccc(Cl)c1`, for which, in test [7], the AC50 is 0.0155 µM (active).
`COc1ccccc1NC(=O)N1CCCCN2[C@H](CO)[C@H](c3ccc(C#CC4CC4)cc3)[C@H]2C1`: the AC50 in test [8] is 18.4 µM (active); in test [9], 1.74 µM (active); in test [10], 2.69 µM (active); in [11], 20.3 µM (active); in test [12], 1.74 µM (active); in test [13], 1.2 µM (active).
As to `C/C=C/c1ccc([C@H]2[C@@H](CO)N(c3nc(C)c(C)s3)[C@@H]2CNCC(C)C)cc1`, the AC50 was 44.1 µM (active) in test [8]; 0.915 µM (active) in [9]; 0.861 µM (active) in test [10]; > 39 µM (inactive) in [11]; 0.473 µM (active) in test [12]; 0.227 µM (active) in test [13].
Turning to `Cc1cccc(C)c1NC(=O)CC12CCCN1CCC2` [PILSICAINIDE], the IC50 in test [14], in [15], in test [16], in test [17], in test [18] and in test [19] was > 20 µM (inactive) each time. Moreover, the IC50 in test [20] and in [21] was > 20 µM (inactive) throughout.
Consider `OC[C@H]1O[C@@H](n2cnc3c(S)ncnc32)[C@H](O)[C@@H]1O` [THIOINOSINE], for which the GI50 with SN12K1 was 1780 µM (inactive); in the test on P388, 1240 µM (inactive); in the test with P388/ADR it was 1140 µM (inactive). The IC50 in test [5] was > 10 µM (inactive); in test [6], > 10 µM (inactive); in [14], 0.118 µM (active); in [15], 2.19 µM (active); in test [16], 0.0286 µM (active); in test [17], 0.063 µM (active). In addition, the 50% inhibitory concentration (IC50) was 0.504 µM (active) in test [18], 0.0144 µM (active) in test [19], 0.0287 µM (active) in test [20] and 1.06 µM (active) in test [21].

For the origin of these results see ChEMBL document CHEMBL1201862, “PubChem BioAssay data set” (2004).
